The values below come from patent US9181239B2, “Pyridopyrimidinone inhibitors of kinases” (AbbVie Inc., priority 2011, dated 2015).

Structures are written as SMILES.

The target of this assay is T1, Wee1 kinase (Homo sapiens, UniProt P30291).
T1 construct: purchased Carnabio 05-177
T1 sequence (P30291 whole entry): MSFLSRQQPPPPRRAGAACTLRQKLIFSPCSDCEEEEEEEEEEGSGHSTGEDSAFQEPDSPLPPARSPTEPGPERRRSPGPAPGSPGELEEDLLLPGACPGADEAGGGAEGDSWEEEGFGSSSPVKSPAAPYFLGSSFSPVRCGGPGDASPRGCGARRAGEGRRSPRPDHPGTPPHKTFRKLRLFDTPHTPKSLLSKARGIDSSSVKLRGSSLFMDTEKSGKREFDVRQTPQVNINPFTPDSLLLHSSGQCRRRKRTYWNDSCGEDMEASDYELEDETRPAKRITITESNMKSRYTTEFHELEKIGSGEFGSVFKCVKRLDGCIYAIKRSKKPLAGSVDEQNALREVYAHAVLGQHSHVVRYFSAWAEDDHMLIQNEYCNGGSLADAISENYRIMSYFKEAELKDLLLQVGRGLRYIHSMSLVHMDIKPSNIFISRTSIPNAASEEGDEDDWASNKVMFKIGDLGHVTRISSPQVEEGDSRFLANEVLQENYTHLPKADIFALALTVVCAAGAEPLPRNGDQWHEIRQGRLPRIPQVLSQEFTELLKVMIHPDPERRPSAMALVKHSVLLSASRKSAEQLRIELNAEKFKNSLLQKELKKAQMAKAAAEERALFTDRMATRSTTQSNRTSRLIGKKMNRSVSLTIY
Briefly: Wee1 time-resolved fluorescence equilibrium binding assay (probe displacement). Particulars: GST-tagged-Wee1 kinase 2 nM, fluorescent probe 300 nM, 1 hour incubation; read-out: Wee-1 binding (Ki nM). As for the experimental part: Wee1 kinase was assayed using a time-resolved fluorescence equilibrium binding assay monitoring displacement of a rapidly reversible Oregon Green-labeled ATP-competitive kinase probe (N-(2-(2-(2-(4-(4-(5-chloro-4-(2-(1-hydroxycyclobutyl)thiazol-5-yl)-1H-pyrrolo[2,3-b]pyridin-2-yl)phenyl)piperazin-1-yl)ethoxy)ethoxy)ethyl)-2′,7′-difluoro-3′,6′-dihydroxy-3-oxo-3H-spiro[isobenzofuran-1,9′-xanthene]-5-carboxamide) by competitive Wee1 inhibitors.
What is called Ki is the equilibrium dissociation constant of an inhibitor or competing ligand from its target. `CN1CCN(c2ccc(Nc3ncc4c(=O)c(-c5c(Cl)cccc5Cl)cn(C5CCC5)c4n3)cc2)CC1` [Example 15, 8-cyclobutyl-6-(2,6-dichlorophenyl)-2-{[4-(4-methylpiperazin-1-yl)phenyl]amino}pyrido[2,3-d]pyrimidin-5(8H)-one]: the Ki is 0.6 nM.

As for `CCn1cc(-c2c(Cl)cccc2Cl)c(=O)c2cnc(Nc3ccc(N4CCN(C)CC4)cc3)nc21` [Example 31, 6-(2,6-dichlorophenyl)-8-ethyl-2-{[4-(4-methylpiperazin-1-yl)phenyl]amino}pyrido[2,3-d]pyrimidin-5(8H)-one], the inhibitory constant (Ki) was determined as 0.6 nM. On to `CN1CCN(c2ccc(Nc3ncc4c(=O)c(-c5c(F)cccc5Cl)cn(C5CC5)c4n3)cc2)CC1` [Example 37, 6-(2-chloro-6-fluorophenyl)-8-cyclopropyl-2-{[4-(4-methylpiperazin-1-yl)phenyl]amino}pyrido[2,3-d]pyrimidin-5(8H)-one], for which the Ki was found to be 2.4 nM.

On to `CN1CCc2cc(Nc3ncc4c(=O)c(-c5c(Cl)cccc5Cl)cn(C)c4n3)ccc2C1` [Example 54, 6-(2,6-dichlorophenyl)-8-methyl-2-[(2-methyl-1,2,3,4-tetrahydroisoquinolin-6-yl)amino]pyrido[2,3-d]pyrimidin-5(8H)-one], for which the inhibition constant Ki amounted to 0.3 nM.

Take `CN(C)CCn1cc(-c2c(Cl)cccc2Cl)c(=O)c2cnc(Nc3ccc(N4CCN(C)CC4)cc3)nc21` [Example 13, 6-(2,6-dichlorophenyl)-8-[2-(dimethylamino)ethyl]-2-{[4-(4-methylpiperazin-1-yl)phenyl]amino}pyrido[2,3-d]pyrimidin-5(8H)-one]: the inhibition constant Ki was determined as 24 nM. To `CN1Cc2cc(Nc3ncc4c(=O)c(-c5c(Cl)cccc5Cl)cn(C)c4n3)ccc2C2(CC2)C1` [Example 14, 6-(2,6-dichlorophenyl)-8-methyl-2-[(2′-methyl-2′,3′-dihydro-1′H-spiro[cyclopropane-1,4′-isoquinolin]-7′-yl)amino]pyrido[2,3-d]pyrimidin-5(8H)-one] belongs 0.3 nM; to `O=c1c(-c2c(Cl)cccc2Cl)c[nH]c2nc(Nc3ccc4c(c3)CNCC43CC3)ncc12` [Example 43, 6-(2,6-dichlorophenyl)-2-(2′,3′-dihydro-1′H-spiro[cyclopropane-1,4′-isoquinolin]-7′-ylamino)pyrido[2,3-d]pyrimidin-5(8H)-one], 0.3 nM; to `Cn1cc(-c2c(Cl)cccc2Cl)c(=O)c2cnc(Nc3ccc4c(c3)CNCC4)nc21` [Example 51, 6-(2,6-dichlorophenyl)-8-methyl-2-(1,2,3,4-tetrahydroisoquinolin-7-ylamino)pyrido[2,3-d]pyrimidin-5(8H)-one], 0.4 nM. Consider `CN1CCN(c2ccc(Nc3ncc4c(=O)c(-c5ccccc5Cl)cn(C)c4n3)cc2)CC1` [Example 5, 6-(2-chlorophenyl)-8-methyl-2-{[4-(4-methylpiperazin-1-yl)phenyl]amino}pyrido[2,3-d]pyrimidin-5(8H)-one], for which the inhibitory constant (Ki) was 3.7 nM. The figure for `CN1CCN(c2ccc(Nc3ncc4c(=O)c(-c5c(Cl)cccc5Cl)cn(Cc5ccncc5)c4n3)cc2)CC1` [Example 12, 6-(2,6-dichlorophenyl)-2-{[4-(4-methylpiperazin-1-yl)phenyl]amino}-8-(pyridin-4-ylmethyl)pyrido[2,3-d]pyrimidin-5(8H)-one] is 14 nM; for `CN(C)C1CCN(C2Cc3ccc(Nc4ncc5c(=O)c(-c6c(Cl)cccc6Cl)cn(C)c5n4)cc3C2)CC1` (stereo not shown) [Example 72, 6-(2,6-dichlorophenyl)-2-({2-[4-(dimethylamino)piperidin-1-yl]-2,3-dihydro-1H-inden-5-yl}amino)-8-methylpyrido[2,3-d]pyrimidin-5(8H)-one] it is 0.5 nM; for `Cc1cc(Nc2ncc3c(=O)c(-c4c(Cl)cccc4Cl)cn(C)c3n2)ccc1N1CCCN(C)CC1` [Example 19, 6-(2,6-dichlorophenyl)-8-methyl-2-{[3-methyl-4-(4-methyl-1,4-diazepan-1-yl)phenyl]amino}pyrido[2,3-d]pyrimidin-5(8H)-one] it is 0.3 nM. As to `Cn1cc(-c2c(Cl)cccc2Cl)c(=O)c2cnc(Nc3ccc(N[C@H]4CC[C@@H](N(C)C)CC4)cc3)nc21` [Example 77, 6-(2,6-dichlorophenyl)-2-[(4-{[cis-4-(dimethylamino)cyclohexyl]amino}phenyl)amino]-8-methylpyrido[2,3-d]pyrimidin-5(8H)-one], the Ki is 0.5 nM. In the case of `CN1CCN(c2ccc(Nc3ncc4c(=O)c(-c5c(Cl)cccc5Cl)cn(-c5ccccc5)c4n3)cc2)CC1` [Example 4, 6-(2,6-dichlorophenyl)-2-{[4-(4-methylpiperazin-1-yl)phenyl]amino}-8-phenylpyrido[2,3-d]pyrimidin-5(8H)-one], the Ki came to 0.1 nM.

With `CN1Cc2cc(Nc3ncc4c(=O)c(-c5c(F)cccc5Cl)cn(C5CC5)c4n3)ccc2C2(CC2)C1` [Example 38, 6-(2-chloro-6-fluorophenyl)-8-cyclopropyl-2-[(2′-methyl-2′,3′-dihydro-1′H-spiro[cyclopropane-1,4′-isoquinolin]-7′-yl)amino]pyrido[2,3-d]pyrimidin-5(8H)-one], the inhibition constant Ki is 1.3 nM. For `CN1CCN(c2ccc(Nc3ncc4c(=O)c(-c5c(Cl)cccc5Cl)cn(C(C)(C)C)c4n3)cc2)CC1` [Example 28, 8-tert-butyl-6-(2,6-dichlorophenyl)-2-{[4-(4-methylpiperazin-1-yl)phenyl]amino}pyrido[2,3-d]pyrimidin-5(8H)-one], the inhibition constant Ki is 19 nM. To `CN1CCC(Nc2ccc(Nc3ncc4c(=O)c(-c5c(Cl)cccc5Cl)cn(C)c4n3)cc2)CC1` [Example 61, 6-(2,6-dichlorophenyl)-8-methyl-2-({4-[(1-methylpiperidin-4-yl)amino]phenyl}amino)pyrido[2,3-d]pyrimidin-5(8H)-one] belongs 0.6 nM; to `CN1Cc2cc(Nc3ncc4c(=O)c(-c5c(F)cccc5Cl)c[nH]c4n3)ccc2C2(CC2)C1` [Example 39, 6-(2-chloro-6-fluorophenyl)-2-[(2′-methyl-2′,3′-dihydro-1′H-spiro[cyclopropane-1,4′-isoquinolin]-7′-yl)amino]pyrido[2,3-d]pyrimidin-5(8H)-one], 0.7 nM.

As to `CN1CCN(c2ccc(Nc3ncc4c(=O)c(-c5c(Cl)cccc5Cl)cn(C)c4n3)cc2)CC1` [Example 8, 6-(2,6-dichlorophenyl)-8-methyl-2-{[4-(4-methylpiperazin-1-yl)phenyl]amino}pyrido[2,3-d]pyrimidin-5(8H)-one], the Ki is 0.3 nM.
